In patent publication EP2832223A1, “HERBICIDAL COMPOSITION” (Ishihara Sangyo Kaisha, Ltd., priority 2012, dated 2013):

Legend:
Assay type in all cases: in vivo
[1] = system: rostrate sesbania (Sesbania rostrata Bremek. & Oberm.); test: Test Example 8: pot test, soil treatment, visual growth inhibition; conditions: soil treatment, 28th day after treatment, read-out: Growth inhibition rate (%) of rostrate sesbania Measured value
Experimental: Upland field soil was put into a 1/300,000 ha pot, and seeds of rostrate sesbania (Sesbania rostrata Bremek. & Oberm.) were sown. On the next day, predetermined amounts of ONEHOPE NYUZAI (tradename), Click (tradename), Spectrum (tradename) and Clio (tradename) were diluted with water (in an amount corresponding to 1,000 L/ha) and applied for soil treatment by a small sprayer.
(§1) On the 28th day after treatment, the state of growth of the rostrate sesbania was visually observed to determine the growth inhibition rate (%). The growth inhibition rate (%) (measured value) and the growth inhibition rate (%) calculated in the same manner as in the above Test Example 1 are shown in Table 8.

[2] = system: annual ragweed (Ambrosia artemisiifolia L.); test: Test Example 11: pot test, soil treatment, visual growth inhibition; conditions: soil treatment, 28th day after treatment, read-out: Growth inhibition rate (%) of annual ragweed Measured value
Experimental: (§2) Upland field soil was put into a 1/300,000 ha pot, and seeds of annual ragweed (Ambrosia artemisiifolia L.) were sown. On the next day, predetermined amounts of ONEHOPE NYUZAI (tradename), Click (tradename), Mikado (tradename) and a wettable powder containing bicyclopyrone prepared in accordance with a conventional formulation method were diluted with water (in an amount corresponding to 1,000 L/ha) and applied for soil treatment by a small sprayer.
as §1, with “annual ragweed” for “rostrate sesbania”, “11.” for “8.”

[3] = system: Japanese millet (Echinochloa utilis Ohwi et Yabuno); test: Test Example 9: pot test, soil treatment, visual growth inhibition; conditions: soil treatment, 28th day after treatment, read-out: Growth inhibition rate (%) of Japanese millet Measured value
Experimental: as §2, with “Japanese millet (Echinochloa utilis Ohwi et Yabuno)” for “annual ragweed (Ambrosia artemisiifolia L.)”
as §1, with “Japanese millet” for “rostrate sesbania”, “9.” for “8.”

Structure (SMILES) | inhibition at 2000 g/ha ([1]; 2000 g/ha) | inhibition at 200 g/ha ([2]; 200 g/ha) | inhibition at 2000 g/ha ([3]; 2000 g/ha) | inhibition at 10 g/ha ([1]; 10 g/ha) | inhibition at 100 g/ha ([2]; 100 g/ha) | inhibition at 10 g/ha ([3]; 10 g/ha)
CCNc1nc(Cl)nc(NC(C)(C)C)n1 [Terbuthylazine, N^2-tert-butyl-6-chloro-N^4-ethyl-1,3,5-triazine-2,4-diamine] | 0% | 20% | 65% | – | – | –
COc1cc(OC)nc(NC(=O)NS(=O)(=O)c2ncccc2C(=O)N(C)C)n1 [Nicosulfuron, 2-(4,6-dimethoxypyrimidin-2-ylcarbamoylsulfamoyl)-N,N-dimethylnicotinamide] | – | – | – | 0% | 0% | 0%
